Reference: the NIST ThermoML archive (doi:10.1021/je400178k)

Test: molar heat capacity at constant pressure; xn = mol fraction of the nth substance listed
Details: 101 kPa, Liquid, Small sample (50 mg) DSC

CN1CCN(C)CC1 [1,4-dimethylpiperazine] + O
molar heat capacity at constant pressure [J/K/mol]
Details | x1 = 0.1 | x1 = 0.2007 | x1 = 0.2992 | x1 = 0.4011 | x1 = 0.5 | x1 = 0.6015 | x1 = 0.6993 | x1 = 0.799 | x1 = 0.8983 | x1 = 1
298.15 K | 108.6 | 122.7 | 135.3 | 148.5 | 159.8 | 171.1 | 183.7 | 195.4 | 206.1 | 216.5
303.15 K | 110.2 | 124.5 | 137.6 | 150.9 | 162.6 | 174.8 | 188.1 | 199.9 | 211.3 | 221.7
308.15 K | 111.1 | 125.9 | 139.7 | 152.3 | 164.9 | 176.4 | 189.9 | 202.1 | 212.6 | 222.1
313.15 K | 112 | 127.8 | 141.9 | 154.4 | 166.7 | 178.5 | 192.3 | 204.4 | 214.6 | 223.4
318.15 K | 113 | 129.8 | 144.1 | 156.5 | 169 | 180.6 | 194.4 | 206.7 | 216.5 | 224.6
323.15 K | 114.3 | 132.1 | 146.3 | 158.2 | 171 | 182.5 | 196.6 | 208.8 | 218 | 225.3
328.15 K | 115.5 | 134.5 | 148.7 | 160.6 | 172.7 | 184.8 | 198.7 | 210.8 | 219.8 | 225.7
333.15 K | 116.4 | 136.4 | 151.5 | 163.3 | 174.8 | 186.4 | 200.6 | 213.1 | 221.6 | 227.5
338.15 K | 117.4 | 137.7 | 153.5 | 165.8 | 177.1 | 188.5 | 202.8 | 215.2 | 223.5 | 228.5
343.15 K | 118.4 | 139.3 | 156.2 | 169 | 179.7 | 191.4 | 205.4 | 217.7 | 225.5 | 229.6
348.15 K | 119.5 | 141 | 157.8 | 171.3 | 182.6 | 194.4 | 208.5 | 220.6 | 227.9 | 231.7
353.15 K | 120.8 | 142.4 | 159.4 | 173.6 | 185.7 | 198.7 | 213.5 | 225.5 | 233.5 | 235.9

CN1CCNCC1 [N-methylpiperazine] + O
molar heat capacity at constant pressure [J/K/mol]
Details | x1 = 0.099 | x1 = 0.1998 | x1 = 0.2995 | x1 = 0.4009 | x1 = 0.4983 | x1 = 0.6007 | x1 = 0.6994 | x1 = 0.7992 | x1 = 0.8992 | x1 = 1
298.15 K | 99.4 | 116 | 128.8 | 141.4 | 153.8 | 166.6 | 179 | 191.4 | 203.6 | 213.9
303.15 K | 100.6 | 117.3 | 130.4 | 143.3 | 155.6 | 168.2 | 180.5 | 192.7 | 204.7 | 214.4
308.15 K | 101.6 | 118.6 | 131.9 | 144.8 | 157.1 | 169.7 | 182 | 194.3 | 205.8 | 215
313.15 K | 102.7 | 119.9 | 133.4 | 146.4 | 158.6 | 171.3 | 183.4 | 195.4 | 206.8 | 215.7
318.15 K | 103.7 | 120.8 | 134.6 | 147.7 | 159.8 | 172.7 | 184.7 | 196.7 | 207.8 | 216.4
323.15 K | 104.6 | 122.1 | 136.2 | 149.3 | 161.4 | 174 | 185.7 | 197.5 | 208.5 | 216.9
328.15 K | 105.6 | 123.5 | 137.8 | 151.1 | 163 | 175.3 | 186.9 | 198.5 | 209.2 | 217.3
333.15 K | 106.1 | 124.8 | 139.4 | 153.3 | 165.5 | 177.3 | 188.2 | 198.9 | 209.3 | 217.2
338.15 K | 106.6 | 126.1 | 140.9 | 154.4 | 166.8 | 178.4 | 189 | 198.5 | 208.2 | 215.5
343.15 K | 107.3 | 127.3 | 142.4 | 156 | 168.2 | 179.8 | 190.6 | 200.1 | 209.2 | 216.2
348.15 K | 108.2 | 128.5 | 143.8 | 157.6 | 170 | 181.6 | 192.4 | 202.3 | 211.4 | 217.6
353.15 K | 109 | 129.7 | 145.2 | 159.2 | 171.5 | 183 | 193.8 | 203.7 | 212.7 | 218
